system: Phakopsora pachyrhizi; assay: Fungicidal activity: Asian soybean rust (PHAKPA), soybean seedlings; type: in vivo; conditions: High volume, 25 ppm, 3 Day Curative
Procedure: Example C: Evaluation of Fungicidal Activity: Asian Soybean Rust (Phakopsora pachyrhizi; Bayer Code […]) Technical grades of materials were dissolved in acetone, which were then mixed with nine volumes of water containing 0.011% Tween 20. The fungicide solutions were applied onto soybean seedlings using an automated booth sprayer to run-off. All sprayed plants were allowed to air dry prior to further handling. Soybean plants (variety Williams 82) were grown in soil-less Metro mix, with one plant per pot. Two week old seedlings were used for testing. Plants were inoculated either 3 days prior to or 1 day after fungicide treatments. Plants were incubated for 24 h in a dark dew room at 22° C. and 100% relative humidity then transferred to a growth room at 23° C. for disease to develop. Disease severity was assessed on the sprayed leaves.

Structure (SMILES) | PHAKPA disease control, 3DC
COc1ccnc(C(=O)N[C@@H](C)C(=O)O[C@@H](C)[C@@H](c2ccc(F)cc2C)C(C)C)c1OC(C)=O [compound 178] | B (≤80)
COc1ccnc(C(=O)N[C@@H](C)C(=O)O[C@H](C)[C@H](c2ccc(F)cc2C)C(C)C)c1OC(C)=O [compound 192] | B (≤80)
COc1ccnc(C(=O)N[C@@H](C)C(=O)O[C@@H](C)[C@H](c2ccc(C)cc2F)C(C)C)c1OC(C)=O [compound 366] | B (≤80)
COc1ccnc(C(=O)N[C@@H](C)C(=O)O[C@@H](C)[C@@H](c2ccc(C)cc2F)C(C)C)c1OC(C)=O [compound 369] | B (≤80)

Source: US10246417B2, “Picolinamides as fungicides” (Dow AgroSciences LLC, priority 2017, dated 2019)
